Source: patent US20090325877A1, “Combination Product of Receptor Tyrosine Kinase Inhibitor and Fatty Acid Synthase Inhibitor for Treating Cancer” (Wyeth, priority 2008, published 2009)
pIC50: −log10 of the molar value. In brackets after ≈: the same amount, converted by molar mass. Entries after “also recorded” stand apart in the source; their conditions may differ. Read-outs that look alike come from different tables or passages of the source.

Key:
EGFR mRNA = EGFR mRNA by RT-PCR and qRT-PCR in A2780 cells; assay type: cell-based, human
Procedure: RNA was extracted from the cells using TRI-REAGENT™ (Molecular Research Center, Cincinnati, Ohio) and subjected to reverse transcription—polymerase chain reaction (“RT-PCR”) using the TITAN ONE TUBE RT-PCR KIT™ system (Hoffmann-La Roche). […] Conditions for ErbB2 and GAPDH were: 50° C., 30 minutes; 94° C., 2 minutes; 10 cycles (94° C., 30 seconds; 51° C., 30 seconds; 68° C., 45 seconds); 25 cycles (94° C., 30 seconds; 51° C., 30 seconds; 68° C., 45 seconds +5 seconds autoextension) and 68° C., 7 minutes. […] Fragments were electrophoresed and stained with ethidium bromide.
Quantitative RT-PCR (“qRT-PCR”) was performed in the ABI PRISM 7000™ Sequence Detector (Applied Biosystems, Foster City, Calif.) using human EGFR, ErbB2, and FASN TaqMan® Gene Expression Assay systems (Applied Biosystems; Assay IDs: Hs00193306_m1, Hs00170433_m1, Hs00188012_m1) according to the manufacturer's instructions. β-actin and GAPDH (VIC™ and FAM labeled pre-developed TaqMan® Assay reagents, Applied Biosystems) were used as endogenous controls. EGFR, ErbB2, and FASN mRNA expression were calculated as described previously (Grunt, ibid).

ErbB2 protein = experiment: Total and phosphorylated ErbB2 protein by Western blot in A2780 cells; assay type: cell-based
Procedure: Cells plated in culture media containing 5% fetal calf serum at a density of 2.6×10^5 (SKOV3) or 6×10^5 (A2780) in 60 mm dishes (Corning, Corning, N.Y.) were treated with FASN inhibitor C75, with small-molecule ErbB RTK inhibitors (RTKIs), with the MEK1/2 antagonist U0126 or with the PI3K inhibitor LY294002 for the indicated times and at various concentrations. In some experiments cells were stimulated for 5 or 10 min with 100 ng/ml EGF (Sigma) before lysis in RIPA buffer (Grunt et al., Biochem Biophys Res Commun 329:1253-1259, 2005). Proteins (20 μg/lane) were subjected to SDS-PAGE, blotted onto PVDF membranes and immunostained (see Grunt, ibid) using the following antibodies: 2 μg/ml goat anti-pEGFR(Tyr1173) (sc-12351), 1 μg/ml rabbit anti-ErbB2 (C-18) (sc-284), 1 μg/ml rabbit anti-pErbB2(Tyr1248) (sc-12352-R) (all from Santa Cruz Biotechnology Inc., Santa Cruz, Calif.), rabbit anti-EGFR 1:1,000 (2232), rabbit anti-AKT 1:1,000 (9272), rabbit anti-pAKT(Ser473) 1:1,000 (9271), rabbit anti-pAKT(Thr308) 1:1,000 (9275), rabbit anti-pERK1/2(Thr202/Tyr204) 1:1,000 (9101) (all from Cell Signaling Technology), rabbit anti-ERK1/2 1:3,000 (06-182, Upstate Biotechnology Inc., Lake Placid, N.Y.), 0.5 μg/ml mouse monoclonal anti-FASN (610963, BD Biosciences, San Jose, Calif.), or 0.67 μg/ml goat anti-human actin (1-19, sc-1616, Santa Cruz Biotechnology). Secondary antibodies were peroxidase-tagged donkey-anti-rabbit IgG (V795A, Promega, Madison, Wis.) or donkey-anti-goat IgG (sc-2020, Santa Cruz Biotechnology) at 1:15,000, respectively, or chicken anti-mouse IgG (sc-2954, Santa Cruz Biotechnology) at 1:10,000. Detection was performed by enhanced chemiluminescence.

[1] = tested on: A2780 ovarian cancer cells; experiment: Formazan dye (MTT) in-vitro cell growth assay, A2780; assay type: cell-based
Procedure: Effect of FAS and ErbB inhibition on A2780 ovarian cancer cells (OCC). […] Cells were grown for three days in the presence of vehicle (0.1% DMSO) or synthetic inhibitor before cell number was estimated. Data in the charts represent means +/−SD of triplicate measurements.
Cells were plated at 0.5−5×10^3/well in 96-well plates. After adhesion, media ±drugs alone or in combination were added. Cell numbers were estimated after 3-5 days by using a colorimetric formazan dye assay (Biomedica, Vienna, Austria). Results (mean±SD, n=3) were expressed in percent of untreated (solvent) control. Statistical analysis of data from drug combination treatment experiments was performed using one-factorial ANOVA followed by Scheffe-test.
Yellow MTT (3-(4,5-Dimethylthiazol-2-yl)-2,5-diphenyltetrazolium bromide, a tetrazole) is reduced to purple formazan in the mitochondria of living cells (see Mosmann, T., J. Immunol. Methods, 65(1-2): 55-63, 1983).

FASN protein = FASN protein level by Western blotting in A2780 cells; assay type: cell-based

IC50 (EGFR mRNA; Homo sapiens, 72 h, after 3 days, read-out: IC50, down-regulation of EGFR mRNA): 6.5 µg/mL (≈ 25.6 µM)
IC50 ([1]; Homo sapiens, 72 h, A2780 OCC, each individual inhibitor, 50% reduction of cell growth, three days, n = 3-5, read-out: IC50 (μM) Mean +/− SD): 21.9 µM
pIC50 ([1]; Homo sapiens, 72 h, A2780 ovarian cancer cells, grown three days with inhibitor, read-out: IC50, growth of OCC (MTT assay)): 4.66
IC50 (FASN protein; Homo sapiens, read-out: IC50, down-regulation of FASN protein): 4.15 µg/mL (≈ 16.3 µM)
Compound: C=C1C(=O)OC(CCCCCCCC)C1C(=O)O (centres unmarked) [C75, tetrahydro-3-methylene-2-oxo-5-n-octyl-4-furancarboxylic acid]
EGFR mRNA, effect in words (EGFR mRNA): slowly and concordantly reduces
IT50, EGFR mRNA (EGFR mRNA; at 7 μg/ml): about 29 hours
phosphorylated ErbB2 (pErbB2), effect in words (ErbB2 protein): downregulates; also recorded: deprivation
total ErbB2 protein, effect in words (ErbB2 protein): downregulates; also recorded: deprivation
in vitro growth inhibition (in words) ([1]; A2780, MTT assay, single drug): growth inhibitory activity
IT50, FASN protein (FASN protein): 40 h
FASN protein expression, effect in words (FASN protein; b102: within three days, pelitinib at doses as low as 3 μM): shut-down
